{"source": "paper PMC3423582", "about": "(Bioorganic & medicinal chemistry letters, 2012)", "key": {"[1]": {"system": "seven cell lines (MCF7, HT-1080, U2OS, RKO, H1299, BJ-TERT, BJ-TERT/LT/ST/RAS^V12)", "experiment": "Lethality across the panel of seven cell lines", "type": "cell-based", "conditions": "summary of Table 1"}, "BJ-TERT/LT/ST/RAS^V12 [2]": {"system": "BJ-TERT/LT/ST/RAS^V12", "experiment": "Lethality", "type": "cell-based", "conditions": "ratio of LC50 values"}, "BJ-TERT [3]": {"system": "BJ-TERT", "experiment": "Cell death by photograph after 24 hours", "type": "cell-based", "conditions": "compound 27 30 µM, staurosporine 1 µM"}, "BJ-TERT/LT/ST/RAS^V12 [4]": {"system": "BJ-TERT/LT/ST/RAS^V12", "experiment": "Cell death by photograph after 24 hours", "type": "cell-based", "conditions": "compound 27 30 µM, staurosporine 1 µM"}, "BJ-TERT [5]": {"system": "BJ-TERT", "conditions": "read-out: EC50 (BJ-TERT); cited from earlier work"}, "BJ-TERT/LT/ST/RAS^V12 [6]": {"system": "BJ-TERT/LT/ST/RAS^V12", "conditions": "read-out: EC50 (BJ-TERT/LT/ST/RAS^V12); cited from earlier work"}, "[7]": {"system": "caspase 3/7 in BJ-TERT cells", "experiment": "Caspase 3/7 activation", "type": "cell-based", "conditions": "28 hours, two-fold 14-point dilution series, Apo-ONE"}, "HT1080 cells": {"system": "HT1080 cells", "experiment": "Modulatory profiling: suppression of lethality by biologically active compounds", "type": "cell-based, human", "conditions": "z-VAD-fmk (45 µM) or Boc-D-fmk (50 µM)"}, "[8]": {"system": "caspase 3/7 in BJ-TERT/LT/ST/RAS^V12 cells", "experiment": "Caspase 3/7 activation", "type": "cell-based", "conditions": "28 hours, two-fold 14-point dilution series, Apo-ONE"}, "BJ-TERT/LT/ST/RAS^V12 [9]": {"system": "BJ-TERT/LT/ST/RAS^V12", "experiment": "Kinetic analysis of induced cell death", "type": "cell-based", "conditions": "treated at the LC90 (30 µM)"}}, "note": "Entries after “also recorded” stand apart in the source; their conditions may differ."}
{"smiles": "CC(CC1C(=O)N(C)C(=O)N(C)C1=O)C1c2c(c3ccccc3n2C(=O)OC(C)(C)C)CCN1C(=O)OC(C)(C)C", "note": "(centres unmarked) [Compound 21]", "values": [{"measurement": "Lethality across the seven cell lines (in words)", "setting": "[1]", "value": "modest to good potency in six cell lines; also recorded: showed lethality in at least five cell lines"}]}
{"smiles": "CC(C=O)C1c2c(c3ccccc3n2C(=O)OC(C)(C)C)CCN1C(=O)OC(C)(C)C", "note": "(centres unmarked) [Compound 20]", "values": [{"measurement": "Lethality across the seven cell lines (in words)", "setting": "[1]", "value": "showed lethality in at least five cell lines"}]}
{"smiles": "COC(OC)C1c2[nH]c3ccccc3c2CCN1C(=O)OCc1ccccc1", "note": "(centres unmarked) [Compound 34]", "values": [{"measurement": "Lethality across the seven cell lines (in words)", "setting": "[1]", "value": "showed lethality in at least five cell lines"}]}
{"smiles": "CN1C(=O)C(C2NC=Cc3c2[nH]c2ccccc32)C(=O)N(C)C1=O", "note": "(centres unmarked) [Compound 2a, 5-(2,9-dihydro-1H-pyrido[3,4-b]indol-1-yl)-1,3-dimethylpyrimidine-2,4,6(1H,3H,5H)-trione]", "values": [{"measurement": "Lethality across the seven cell lines (in words)", "setting": "[1]", "value": "showed lethality in at least five cell lines"}, {"measurement": "Enhancement of lethality compared with compound 1 in BJ-TERT/LT/ST/RAS^V12", "setting": "BJ-TERT/LT/ST/RAS^V12 [2]", "value": "two-fold more lethal"}]}
{"smiles": "CN1C(=O)C(Cc2nccc3c4ccccc4n(C)c23)C(=O)N(C)C1=O", "note": "[Compound 8]", "values": [{"measurement": "Lethality across the seven cell lines (in words)", "setting": "[1]", "value": "slightly more active"}]}
{"smiles": "CN[C@@H]1C[C@H]2O[C@@](C)([C@@H]1OC)n1c3ccccc3c3c4c(c5c6ccccc6n2c5c31)C(=O)NC4", "note": "[Staurosporine, reference compound]", "values": [{"measurement": "Cell death in BJ-TERT cells", "setting": "BJ-TERT [3]", "value": "induced cell death"}, {"measurement": "Cell death in BJ-TERT/LT/ST/RAS^V12 cells", "setting": "BJ-TERT/LT/ST/RAS^V12 [4]", "value": "induced cell death"}]}
{"smiles": "CCOc1ccccc1-n1c(C(C)N2CCN(C(=O)COc3ccc(Cl)cc3)CC2)nc2ccccc2c1=O", "note": "(centres unmarked) [erastin]", "values": [{"measurement": "EC50", "setting": "BJ-TERT [5]", "value": 23.7, "unit": "µM"}, {"measurement": "EC50", "setting": "BJ-TERT/LT/ST/RAS^V12 [6]", "value": 3900, "unit": "nM"}]}
{"smiles": "COC(=O)c1ccc(C2c3[nH]c4ccccc4c3CC(C(=O)OC)N2C(=O)CCl)cc1", "note": "(centres unmarked) [RSL3]", "values": [{"measurement": "EC50", "setting": "BJ-TERT [5]", "value": 2.8, "unit": "µM"}, {"measurement": "EC50", "setting": "BJ-TERT/LT/ST/RAS^V12 [6]", "value": 365, "unit": "nM"}]}
{"smiles": "CCOC(=O)C1c2[nH]c3ccccc3c2CCN1C(=O)OCc1ccccc1", "note": "(centres unmarked) [Compound 29]", "values": [{"measurement": "Lethality across the seven cell lines (in words)", "setting": "[1]", "value": "showed lethality in at least five cell lines"}]}
{"smiles": "CCOC(=O)C1c2c(c3ccccc3n2C)CCN1C(=O)OC", "note": "(centres unmarked) [Compound 27]", "values": [{"measurement": "Lethality across the seven cell lines (in words)", "setting": "[1]", "value": "showed lethality in at least five cell lines; also recorded: effective in inducing cell death in six out of seven cell lines"}, {"measurement": "Enhancement of lethality compared with compound 1 in BJ-TERT/LT/ST/RAS^V12", "setting": "BJ-TERT/LT/ST/RAS^V12 [2]", "value": "four fold enhancement"}, {"measurement": "Cell death in BJ-TERT cells", "setting": "BJ-TERT [3]", "value": "not BJ-TERT"}, {"measurement": "Caspase 3/7 activation in BJ-TERT", "setting": "[7]", "value": "does not induce caspase activation"}, {"measurement": "Effect of caspase inhibitors on the compound's lethality", "setting": "HT1080 cells", "value": "not inhibited"}, {"measurement": "Caspase 3/7 activation in BJ-TERT/LT/ST/RAS^V12", "setting": "[8]", "value": "failed to induced caspase 3/7 activation"}, {"measurement": "Cell death in BJ-TERT/LT/ST/RAS^V12 cells", "setting": "BJ-TERT/LT/ST/RAS^V12 [4]", "value": "observed only in BJ-TERT/LT/ST/RAS^V12 cells"}, {"measurement": "Time at which compound started to kill cells", "setting": "BJ-TERT/LT/ST/RAS^V12 [9]", "value": "≤ 12", "unit": "h"}, {"measurement": "Time to complete cell death", "setting": "BJ-TERT/LT/ST/RAS^V12 [9]", "value": "≤ 24", "unit": "h"}]}
{"smiles": "CC(C)(C)OC(=O)N1CCc2c(n(C(=O)OC(C)(C)C)c3ccccc23)C1CC=O", "note": "(centres unmarked) [Compound 13]", "values": [{"measurement": "Lethality across the seven cell lines (in words)", "setting": "[1]", "value": "showed lethality in at least five cell lines"}]}
